The record followed here is publication PMC11375794, “Discovery of new Hsp90–Cdc37 protein–protein interaction inhibitors: in silico screening and optimization of anticancer activity” (RSC Advances, 2024).

Common to all, as to assay type: cell-based
Test [1] concerns MCF-7 breast cancer cell line. Nature of the test: MTS cell viability (antiproliferative) assay in MCF-7. As to conditions: Homo sapiens, MCF7, 72 h, MTS assay, 72 hours, mean ± SD. The protocol: (§1) Hormone-positive breast cancer cell line MCF-7 (ATCC-HTB-22; ATCC) was grown in Dulbecco's Modified Eagle's Medium (DMEM), while Ewing sarcoma cell line SK-N-MC (a kind gift from Beat Schäfer) and THP-1 (ATCC-TIB-202; ATCC) cells were grown in Roswell Park Memorial Institute (RPMI) 1640. The medium was supplemented with 10% heat-inactivated fetal bovine serum (Gibco, Thermo Fisher Scientific, Waltham, MA, USA), 100 U per mL penicillin, 100 μg per mL streptomycin, and 2 mM L-glutamine (all from Sigma-Aldrich, St. Louis, MO, USA). All cell lines were incubated at 37 °C in a 5% CO2 atmosphere.
(§2) The antiproliferative activity of the compounds was evaluated against MCF-7 (ATCC-HTB-22; ATCC), SK-N-MC (a kind gift from Beat Schäfer) and THP-1 (ATCC-TIB-202; ATCC) cancer cell lines using the MTS assay (Promega, Madison, WI, USA). Cells were seeded in 96-well plates at a density of 2 × 10^4 cells per mL in 100 μL of growth medium for THP-1 and were treated with compounds and controls directly, while 3 × 10^3 cells per mL for MCF-7 and SK-N-MC were seeded in 100 μL of growth medium and allowed to adhere overnight following the treatment. In all cases the cells were treated with respective newly prepared compounds, positive controls (17-DMAG for MCF-7 and SK-N-MC; PU-H71 for THP-1) and a vehicle control (0.5% DMSO). The incubation time after treatment was 72 hours, then CellTiter96® Aqueous One Solution Reagent (Promega, Madison, WI, USA) was added to each well. Following a 3 hours incubation, absorbance was measured at 492 nm using BioTek's Synergy™ 4 Hybrid Microplate Reader (Winooski, VT, USA). The measurements were performed in two biological repetitions and each time the experiment was performed in a triplicate. The IC50 values, representing the concentration of inhibitor required for half-maximal inhibition, are the average of three independent experiments and were calculated using GraphPad Prism 9.5.0 software (San Diego, CA, USA).
Background: Tetrazolium dyes change colour on reduction, which living cells bring about.

Test [2] has as its system Ewing sarcoma cell line SK-N-MC. Nature of the test: MTS cell viability (antiproliferative) assay in SK-N-MC. As to conditions: Homo sapiens, SK-N-MC, 72 hours, mean ± SD. The procedure:
as §1, §2

In a further test the test system is SK-N-MC cells. Nature of the test: Apoptosis assay, annexin V–PE/SytoxBlue staining, flow cytometry. The protocol: Apoptosis of SK-N-MC cells was evaluated by detecting phosphatidylserines using R-phycoerythrin–annexin V conjugate (R-PE annexin V; Invitrogen, Carlsbad, CA, USA) and nucleic acids in dead cells using SytoxBlue Dead Cell Stain (Invitrogen, Carlsbad, CA, USA), according to the manufacturer's instructions. Briefly, 2.5 × 10^5 SK-N-MC cells were seeded in six-well plates. After 24 hours, cells were washed with PBS and treated with 8c and 13g in 10 and 20 μM concentrations for 24 and 48 hours. The medium with detached cells was then collected, and attached cells were harvested and combined with the detached cells. Following two washing steps with cold PBS, cells were resuspended in 100 μL annexin-binding buffer (Invitrogen, Carlsbad, CA, USA) containing 2.5 μL annexin V–R-PE solution and 750 nM SytoxBlue, and incubated in the dark for 15 minutes at room temperature. Before measurement, 200 μL of annexin-binding buffer was added. A minimum of 10 000 events were collected using a flow cytometer (Attune NxT; Invitrogen, Carlsbad, CA, USA). Annexin V (ANV)-/SYTOX Blue (SB)-indicates viable cells, ANV+/SB− indicates early apoptotic cells, ANV+/SB+ indicates late apoptotic cells, and ANV−/SB+ indicates necrotic cells.
In general terms: A flow cytometer gives signals particle by particle.

For `CN(CCOc1ccccc1)C(=O)c1csc(Nc2cc(N3CCNCC3)ncn2)n1` [Compound 8c, N-Methyl-N-(2-phenoxyethyl)-2-((6-(piperazin-1-yl)pyrimidin-4-yl)amino)thiazole-4-carboxamide], the IC50 (as a rule, the concentration needed to halve the response being measured) in test [1] was determined as 20 ± 1.2 µM; in test [2], 12.8 ± 0.9 µM. Also, in the test on SK-N-MC cells (10 μM and 20 μM, 24 and 48 hours), the “induction of apoptosis (qualitative)” value is listed as “significantly induced apoptosis”. For the same compound, the “proportion of apoptotic cells” value with SK-N-MC cells (20 μM, 24 hours) amounted to 87.5%; in the test with SK-N-MC cells (20 μM, 48 hours) it was 87.7%.

In the case of `O=C(NCCOc1ccccc1)c1ccc(Nc2cc(N3CCNCC3)ncn2)cc1` [Compound 13g, N-(2-Phenoxyethyl)-4-((6-(piperazin-1-yl)pyrimidin-4-yl)amino)benzamide], the figures for the IC50 in test [1] and in test [2] were 19.3 ± 2 µM and 20 ± 1.5 µM, respectively. The “proportion of apoptotic cells” value in the test with SK-N-MC cells (10 μM, 24 hours) is on record as 27%; with SK-N-MC cells (10 μM, 48 hours), 11.4%; with SK-N-MC cells (20 μM, 24 hours) it was 42.8%; with SK-N-MC cells (20 μM, 48 hours), 56.8%.
